The record followed here is patent US20200188471A1 (GUILIN EIGHT PLUS ONE PHARMACEUTICAL CO., LTD., priority 2017, published 2020).

Where two headings read alike, the source gives them in different places. No end group written: not given here.

In assay [1] the test system is CIA mice. Briefly: Treg (Foxp3) and Th1, Th2, Th17 expression in T cells/splenocytes of CIA mice. To be noted: vs model group; for expression level of Foxp3 in Treg cells: CIA mice; for expression level of IFN-γ (Th1) / expression level of IL-17 (Th17) / expression of IL-4 (Th2): splenocytes of CIA mice. The assay is classed as in vivo, DBA/1 mice. The method, then:
(§1) After 3 days of adaptation, DBA/1 mice were weighed and began to model. Six were randomly selected as the normal group, and the rest were the experimental group.
(§2) Day 0: Take bovine type IT collagen (4 mg/ml) and vortex and mix with an equal volume of CFA (4 mg/ml). It is better to not disperse on the water, and 100 ul/head is injected intradermally into the tail of the mouse.
(§3) Day 21: Take bovine type II collagen (4 mg/ml) and vortex mixed with an equal volume of IFA (4 mg/ml) until the droplets are not dispersed on the water. The mice are injected intradermally with 100 ul/head. On the 30th day, the model was successfully established. […] The drug was administered by injection once a day for 18 days.
(§4) One-Way ANOVA statistical analysis of the data using Graphpad Prism 5 was considered statistically significant at P<0.05. “*” indicates P<0.05, “**” indicates P<0.01, and “***” indicates P<0.001.
Studies have shown that Th17 cells secrete high levels of IL-17, which stimulates the secretion of matrix metalloproteinase-1, IL-1β by FLS. TNF-α and other co-inducing NF-κB receptor activator ligands are involved in the bone destruction of RA and inflammatory damage in tissues. The effect was observed by measuring the expression of helper T cells in splenocytes.

In assay [2] the test system is CIA mice. Briefly: Micro-CT detection of bone destruction in CIA mice. It counts as in vivo, DBA/1 mice. To be noted: for trabecular bone damage: Micro-CT of trabecular bone; for trabecular bone damage / degree of bone destruction, hind limbs: CIA mice; for degree of bone destruction, hind limbs: peptides 1600 ug/kg, infliximab 4 mg/kg i.p.
The test system of assay [3] is CIA mice. The assay is described as follows: Joint histology of CIA mice (HE staining, TNF-α immunohistochemistry, TRAP staining). It counts as in vivo, DBA/1 mice. The conditions noted are these: for inflammatory cell infiltration / joint damage / joint structure: HE staining of joint.
The test system of assay [4] is CIA mice. Briefly: Collagen-specific antibody and inflammatory factors in serum of CIA mice (ELISA, multi-factor kit). It counts as in vivo, DBA/1 mice. The conditions noted are these: 1600 ug/kg i.p., vs model group. The method, then: as §1, §2, §3, §4
The ELISA kit and multi-factor kit were used to determine the collagen-specific antibody Ig G and pro-inflammatory factors IL-17, TNF-α, IL-6, IFN-γ and anti-inflammatory factor IL-10 in the serum of each group of mice. Compared with the normal control group, the collagen-specific antibody Ig G and the pro-inflammatory factors IL-17, TNF-α, IL-6, IFN-γ in the serum of the model group mice.
Background: In an ELISA, binding on a coated surface is turned into a signal by an enzyme label.

The next assay addresses TNF-α. The assay is described as follows: MST, fluorescently labelled TNF-α, TNFR1 titrated, no SN10.
For assay [5], the target named is TNFR1. The assay is described as follows: MST, fluorescently labelled TNFR1, TNF-α titrated, no SN10.
In assay [6] the target is TNFR2. The assay is described as follows: MST, fluorescently labelled TNFR2, TNF-α titrated in the presence of 100 µM SN10; apparent KD.
The target in assay [7] is TNFR2. Briefly: MST, fluorescently labelled TNFR2, TNF-α titrated, no SN10.
The target of assay [8] is TNFR1. The assay is described as follows: MST, fluorescently labelled TNFR1 with an SN10 dilution series.
Target sequence in this assay (P19438 whole entry): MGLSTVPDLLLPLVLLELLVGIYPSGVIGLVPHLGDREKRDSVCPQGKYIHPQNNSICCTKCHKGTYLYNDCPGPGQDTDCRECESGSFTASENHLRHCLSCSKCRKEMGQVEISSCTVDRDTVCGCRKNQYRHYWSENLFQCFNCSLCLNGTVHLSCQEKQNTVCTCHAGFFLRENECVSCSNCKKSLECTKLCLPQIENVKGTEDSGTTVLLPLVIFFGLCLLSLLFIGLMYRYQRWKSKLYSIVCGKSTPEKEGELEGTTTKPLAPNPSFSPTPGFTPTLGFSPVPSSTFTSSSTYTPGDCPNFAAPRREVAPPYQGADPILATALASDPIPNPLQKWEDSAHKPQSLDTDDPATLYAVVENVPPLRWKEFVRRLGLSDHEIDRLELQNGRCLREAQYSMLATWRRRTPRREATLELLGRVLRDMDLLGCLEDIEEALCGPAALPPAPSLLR
The target in assay [9] is TNFR1. Briefly: BIAcore SPR, TNFR1 coated on CM-5 chip, peptide injected. Background: In SPR one partner is held on a chip, and binding of the other changes the refractive index at the surface.
Target sequence in this assay (P19438 whole entry): as above
Assay [10] addresses TNFR1.
Target sequence in this assay (P19438 whole entry): as above
In assay [11] the target is TNFR1. This is another data set of the same source.
Target sequence in this assay (P19438 whole entry): as above
[12] abbreviates: trabecular bone, Micro-CT, vs model group.

TNF-α (ligand), sequence (P01375 77-233): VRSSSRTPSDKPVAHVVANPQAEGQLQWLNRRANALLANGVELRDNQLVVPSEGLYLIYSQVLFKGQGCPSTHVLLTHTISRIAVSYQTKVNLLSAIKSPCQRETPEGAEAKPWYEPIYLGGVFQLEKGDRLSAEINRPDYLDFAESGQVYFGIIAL
TNF-α, sequence (P01375 77-233): as above

As for “PEG-SN10: Hydrostatin-SN10 modified by mPEG2000, carboxyl of mPEG2000 connected to free amino group of N-terminal aspartic acid (mPEG2000-DEQHLETELH)”, in the assay on CIA mice [1], the “expression level of Foxp3 in Treg cells” value is on record as “significantly increased”, the “expression level of IFN-γ (Th1)” value is reported as “significantly down-regulated”, the “expression level of IL-17 (Th17)” value is “significantly down-regulated” and the “expression of IL-4 (Th2)” value is “up-regulated”. In addition, in the assay on CIA mice [2] (vs model group), the trabecular bone damage entry was “significantly reduced bone damage”. Moreover, the “degree of bone destruction, hind limbs” value in the assay on CIA mice [2] (Micro-CT) is given as “significantly reduced the degree of bone destruction”. In addition, in the assay with CIA mice [2] (setting [12]), the “bone area/tissue volume (BS/TV)” value was “significantly up-regulated”, the “bone mineral density (BMD)” value is given as “significantly up-regulated”, the “bone surface area/bone volume (BS/BV)” value is reported as “significant down” and the “bone volume/tissue volume (BV/TV)” value is on record as “significantly up-regulated”. Moreover, in the assay on CIA mice [2] (setting [12]), the “number of trabeculae (Th.N)” value is “significantly up-regulated”, the “trabecular model factor (Tb.pf)” value is “significant down”, the “trabecular separation (Tb.sp)” value is on record as “significant down” and the “trabecular thickness (Tb.Th)” value is on record as “significantly up-regulated”. In the assay with CIA mice [3], the inflammatory cell infiltration entry was “weak inflammatory cell infiltration”, the joint damage result is “significantly weakened” and the joint structure entry is listed as “complete joint structure”. In the assay with CIA mice [3] (TRAP staining, vs model group), the osteoclasts in joints result is listed as “reduced osteoclasts” and the “tartrate-resistant phosphatase (TRAP) in joints” value is given as “reduced”. The “amount of expression of TNF-α in the joints” value in the assay with CIA mice [3] (immunohistochemistry, vs model group) is given as “reduced”. Moreover, in the assay on CIA mice [4], the “content of IFN-γ in serum” value is “significantly reduced”, the “content of IL-6 in serum” value was “significantly reduced”, the “content of IL-17 in serum” value is “significantly reduced” and the “content of TNF-α in serum” value is “significantly reduced”. Further, in the assay with CIA mice [4], the “content of anti-inflammatory factor IL10 in serum” value is listed as “Significantly increased” and the “content of collagen-specific antibody Ig G in serum” value is recorded as “significantly reduced”.

The molecule TNFR1 (receptor) yielded a Kd in the assay with TNF-α of 2.84 nM.

Take “infliximab: anti-TNF-α monoclonal antibody, positive drug [reference compound]”: in the assay with CIA mice [1], the “expression level of Foxp3 in Treg cells” value is given as “significantly increased”, the “expression level of IFN-γ (Th1)” value is reported as “significantly down-regulated”, the “expression level of IL-17 (Th17)” value is reported as “significantly down-regulated” and the “expression of IL-4 (Th2)” value is given as “up-regulated”. In addition, the trabecular bone damage result with CIA mice [2] (vs model group) is given as “significantly reduced bone damage”. Besides, in the assay on CIA mice [2] (Micro-CT), the “degree of bone destruction, hind limbs” value is recorded as “significantly reduced the degree of bone destruction”. For the same molecule, in the assay with CIA mice [3], the inflammatory cell infiltration entry is listed as “weak inflammatory cell infiltration”, the joint damage result is reported as “significantly weakened” and the joint structure result is recorded as “complete joint structure”.

For TNF-α (ligand), the Kd worked out at 116 nM with TNFR1 [5], 384 nM with TNFR2 [6] and 328 nM in the assay with TNFR2 [7].

In the case of DEQHLETELH (modifications not checked) [selective TNFR1 antagonist peptide Hydrostatin-SN10], the Kd with TNFR1 [8] was 2800 nM; with TNFR1 [9], 2800 nM; with TNFR1 [10] it was 2830 nM; with TNFR1 [11], 2780 nM.
